One assay concerns the target T1, rat NaP2b (SLC34A2) (Rattus norvegicus, UniProt Q9JJ09).
T1 construct: host or cells: HEK293
T1 sequence (Q9JJ09 1-695): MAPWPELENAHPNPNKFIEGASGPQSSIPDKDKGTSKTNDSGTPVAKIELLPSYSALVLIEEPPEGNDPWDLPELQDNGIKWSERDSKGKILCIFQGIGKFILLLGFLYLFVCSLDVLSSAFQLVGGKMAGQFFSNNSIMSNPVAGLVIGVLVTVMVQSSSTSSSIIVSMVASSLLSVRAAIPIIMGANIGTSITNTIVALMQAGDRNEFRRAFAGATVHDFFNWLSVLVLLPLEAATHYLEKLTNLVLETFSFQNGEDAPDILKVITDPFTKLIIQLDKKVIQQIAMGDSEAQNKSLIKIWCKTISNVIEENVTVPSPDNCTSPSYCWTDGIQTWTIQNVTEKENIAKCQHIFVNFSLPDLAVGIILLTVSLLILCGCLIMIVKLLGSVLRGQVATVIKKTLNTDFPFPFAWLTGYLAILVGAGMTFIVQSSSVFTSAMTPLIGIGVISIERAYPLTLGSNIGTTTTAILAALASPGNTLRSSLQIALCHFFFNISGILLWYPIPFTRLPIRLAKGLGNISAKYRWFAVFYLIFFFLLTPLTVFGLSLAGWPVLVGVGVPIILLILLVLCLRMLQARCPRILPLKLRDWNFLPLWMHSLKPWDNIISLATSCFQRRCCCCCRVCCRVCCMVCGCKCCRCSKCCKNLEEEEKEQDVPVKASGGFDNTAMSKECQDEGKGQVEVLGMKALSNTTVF
Briefly: Inhibition of NaP2b-mediated Pi (33P) uptake in transfected HEK293 cells, rat NaP2b. It counts as cell-based. The conditions noted are these: HEK293 cells transfected with rat NaP2b, 100 uM phosphate, 0.1 nM to 30 uM, read-out: pIC50 range for rat Nap2b (converted). The essentials: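 HEK293 cells transiently transfected with rat NaP2b; 33P-phosphate uptake measured in sodium or choline buffer (100 uM KH2PO4, PiT-silencing agent, pH 7.4) with compound at twelve concentrations, 0.1 nM–30 uM, in duplicate. Lysed cells counted by scintillation; pIC50 derived from concentration-response.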

Another assay has as its target T2, human NaP2b (SLC34A2) (Homo sapiens, UniProt O95436).
T2 construct: host or cells: HEK293
T2 sequence (O95436 1-690): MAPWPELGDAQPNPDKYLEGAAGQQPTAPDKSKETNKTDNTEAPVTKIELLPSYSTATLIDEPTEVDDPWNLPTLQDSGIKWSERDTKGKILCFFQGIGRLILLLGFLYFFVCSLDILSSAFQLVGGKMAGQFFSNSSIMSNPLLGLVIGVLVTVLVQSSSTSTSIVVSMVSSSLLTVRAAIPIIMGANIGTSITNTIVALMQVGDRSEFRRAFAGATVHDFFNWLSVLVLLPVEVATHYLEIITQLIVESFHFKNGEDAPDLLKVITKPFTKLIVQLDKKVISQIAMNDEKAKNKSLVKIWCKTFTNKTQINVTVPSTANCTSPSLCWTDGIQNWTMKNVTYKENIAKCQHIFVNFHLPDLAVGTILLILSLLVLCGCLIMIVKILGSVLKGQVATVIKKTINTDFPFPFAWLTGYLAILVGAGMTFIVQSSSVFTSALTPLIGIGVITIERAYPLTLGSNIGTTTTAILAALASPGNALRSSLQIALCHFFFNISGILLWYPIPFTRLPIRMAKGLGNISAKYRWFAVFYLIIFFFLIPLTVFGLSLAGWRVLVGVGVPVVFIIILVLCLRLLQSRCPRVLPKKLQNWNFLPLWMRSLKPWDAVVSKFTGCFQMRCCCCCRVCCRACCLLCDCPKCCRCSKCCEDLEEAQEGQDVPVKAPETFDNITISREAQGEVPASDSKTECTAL
Briefly: Inhibition of NaP2b-mediated Pi (33P) uptake in transfected HEK293 cells, human NaP2b. The conditions noted are these: HEK293 cells transfected with human NaP2b, 100 uM phosphate, 0.1 nM to 30 uM, read-out: pIC50 range for human NaP2b (converted). It counts as cell-based. The essentials:
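HEK293 cells transiently expressing mutated human NaP2b, with PiT transport pharmacologically silenced; sodium-dependent 33P-phosphate uptake (100 uM KH2PO4, pH 7.4) measured over 3–30 min at room temperature by scintillation. Twelve compound concentrations from 0.1 nM to 30 uM, in duplicate; pIC50 calculated.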

For the molecule `O=C(O)CCSCc1cccc(C(=O)Nc2ccc(N3CCCCC3)cc2-c2cc(C(=O)NCc3cccc(C(F)(F)F)c3)ccn2)c1` [Example 1.1, 3-(3-((2-(4-((3-(trifluoromethyl)benzyl)carbamoyl)pyridin-2-yl)-4-(piperidin-1-yl)phenyl)carbamoyl)-benzylthio)propanoic acid], the IC50 on rat NaP2b (SLC34A2) and on human NaP2b (SLC34A2) was 1 to 7.94 µM throughout.
As for `CCN(CC)c1ccc(NC(=O)c2cccc(C(=O)N(C)CCN3CCOCC3)c2)c(-c2cc(C(=O)NCc3cccc(C(F)(F)F)c3)ccn2)c1` [Example 25, N1-(4-(Diethylamino)-2-(4-((3-(trifluoromethyl)benzyl)carbamoyl)pyridin-2-yl)phenyl)-N3-methyl-N3-(2-morpholinoethyl)isophthalamide], the IC50 at rat NaP2b (SLC34A2) and at human NaP2b (SLC34A2) was less than 1 µM in each case.
